{"source": "patent US20090075318A1", "about": "“USING PHOTO-RESPONSIVE SURFACTANTS TO REVERSIBLY CONTROL PROTEIN AGGREGATION WITH LIGHT ILLUMINATION” (University of Southern California, priority 2007, published 2009)", "key": {"α-chymotrypsin [1]": {"molecular_target": "T1, α-chymotrypsin (Bos taurus, UniProt P00766)", "T1 construct": "α-Ch results from the removal of two dipeptides at positions 14-15 and 147-148 in chymotrypsinogen; purchased Sigma C-4129 (lot # 105K7670); host or cells: bovine pancreas", "experiment": "TEM of α-Ch/azoTAB solutions", "design": "species or system bovine", "conditions": "two weeks (fresh solution) or approx. one year (SANS solution, pH 3, 4.2 mM azoTAB)", "procedure": "Transmission electron microscopy was performed on a Philips EM420 TEM operating at 80 kV. A drop of protein solution was placed on a carbon-coated grid for 10 seconds and then blotted with filter paper, followed by repeating this procedure with a second drop. The grid was then placed in a freshly made 1 wt % uranyl acetate solution for 30 s."}, "α-chymotrypsin [2]": {"molecular_target": "T1, α-chymotrypsin", "experiment": "Congo red staining, optical microscopy of α-Ch/azoTAB solution", "design": "species or system bovine", "conditions": "α-Ch/azoTAB solution aged for five days", "procedure": "Optical microscopy was performed on an Olympus IX71 inverted fluorescence microscope equipped using a 50× lens (Olympus, model SLCPlanFl) and a U-N41027 CAL CRIM C58158 filter cube (Chroma, model 058158). Images were recorded with a Hamamatsu digital CCD camera (model C4742-95). Aliquots (5-10 μL) of the protein-surfactant solution were deposited onto glass slides and dyed with an equal volume of a 400 μM Congo red aqueous solution."}, "α-chymotrypsin [3]": {"molecular_target": "T1, α-chymotrypsin", "experiment": "FT-IR secondary structure of α-Ch/azoTAB mixtures", "design": "species or system bovine", "conditions": "addition of trans azoTAB to pure α-Ch, and UV exposure of α-Ch/azoTAB", "procedure": "Infrared spectra were measured with a Genesis II FT-IR spectrometer (Mattson Instruments). Solutions were loaded in a demountable liquid cell equipped with a circulating water jacket (T=20° C.) between a pair of CaF2 windows using a 50 μm Teflon spacer. A liquid light guide (Oriel, model no. 77557) was used to directly illuminate the sample with UV or visible light for 2 hours prior to and during data collection, as previously described (9). The sample chamber was continuously purged with dry air to eliminate the influence of water vapor. For each spectrum, a 500-scan interferogram was collected with a 2 cm^−1 resolution. The relatively sharp surfactant peaks at ˜1600 cm^−1 were removed by subtracting the spectra measured for a pure surfactant solution under otherwise identical conditions, resulting in corrected spectra that were flat in the region between 2000 and 1750 cm^−1. Fourier self-deconvolution (FSD) was applied to spectra to resolve the overlapping bands in the Amide I region using a band-narrowing factor k=2.0 and a full width at half height of 12.6 cm^−1. Second derivative spectra were obtained with the Savitsky-Golay function for a 3rd order polynomial, using a 13 data point window. […] Difference spectra obtained for pure α-chymotrypsin solutions without surfactant shown no significant absorbance changes (<1% throughout the amide I region)."}, "chymotrypsinogen-A": {"molecular_target": "T2, chymotrypsinogen-A (Bos taurus, UniProt P00766)", "T2 construct": "Chymotrypsinogen is the zymogen of α-chymotrypsin; purchased Worthington LS005630; host or cells: bovine pancreas", "experiment": "SAXS of chymotrypsinogen-A/azoTAB solutions", "design": "species or system bovine", "procedure": "The small-angle X-ray scattering data were measured using the X21 beamline at the National Synchrotron Light Source at the Brookhaven National Laboratory. (28) The X-ray wavelength was set to 1.24 Å with a pair of Si(111) monochromator crystals. The sample-to-detector distance was calibrated to be 1.69 m using a silver behenate standard. To avoid radiation damage, solutions were continuously passed at a flow rate of 60 μL/min through a 1-mm glass capillary housed within an aluminum block containing Plexiglas observation windows. (28) The net intensities were corrected for the background and solvent scattering as well as sample transmission, and were put on an absolute scale by comparison with a calibration standard (10 mg/mL BSA (10))."}, "α-chymotrypsin [4]": {"molecular_target": "T1, α-chymotrypsin", "experiment": "SANS of α-chymotrypsin/azoTAB solutions (Guinier, PDDF, shape reconstruction)", "design": "species or system bovine", "procedure": "Small-angle neutron scattering experiments were performed on the 30-m NG3 SANS instruments at NIST. (24) A neutron wavelength of λ=6 Å and a detector offset of 25 cm with two sample-detector distances of 1.33 and 7.0 m were utilized to achieve a Q range of 0.0048-0.46 Å^−1. The net intensities were corrected for the background and empty cell (pure D2O), accounting for the detector efficiency using the scattering from an isotropic scatterer (Plexiglas), and converted to an absolute differential cross section per unit sample volume (in units of cm^−1) using an attenuated empty beam. The data were then corrected for incoherent scattering by subtracting a constant background. The shape-reconstruction algorithm GA_STUCT (11) was used to generate solution conformations, similar to previous studies (10, 11). Beginning with an initial guess of randomly-distributed scattering centers, the program rearranges the position of the scattering centers to best fit the experimental scattering data.\nThe weight-average molecular weight (Mw) of each sample was calculated from the equation\nwhere ρS and ρP are the scattering length densities of the solvent (6.36×10^10 cm^−2) and protein (3.23×10^10 cm^−2), respectively, c is the protein concentration (11.6 mg/mL at pH 3 and 11.4 mg/mL at pH 7), and υ is the protein specific volume (0.734 cm^3/g). (25) I(0)-values were determined from Guinier plots (25) using I(Q)=I(0)exp(−Q^2Rg^2/3), where Rg is the radius of gyration. Guinier plots, generally valid for QRg<1.3, can be influenced by solution structuring due to intermolecular interactions between charged proteins, which becomes increasingly important as Q decreases below 1.5/R (10) (or <0.05 Å^−1 using an α-Ch radius ˜30 Å). Thus, pair distance distribution functions were calculated from the SANS data using the program GNOM (26) according to the equation\nwhere P(r) is related to the probability of two scattering centers (nuclei for SANS) being a distance r+dr apart, and Dmax is the maximum distance between scattering centers within the protein or protein oligomer. I(0)-values were then obtained from the PDDFs through I(0)=4π∫0^D^maxP(r)dr, which has the advantage of utilizing the entire Q-range to determine I(O), as opposed to just the low-Q values as in Guinier analysis (27)."}, "[5]": {"conditions": "cited from earlier work"}}, "note": "Like-named read-outs stand apart in the source and are kept apart here."}
{"smiles": "CCc1ccc(/N=N/c2ccc(OCC[N+](C)(C)C)cc2)cc1", "note": "[azoTAB, azobenzene-trimethylammonium bromide surfactant]", "values": [{"measurement": "fibril diameter", "setting": "α-chymotrypsin [1]", "value": "ca. 10 nm"}, {"measurement": "Congo red staining result", "setting": "α-chymotrypsin [2]", "value": "characteristic Congo red fluorescence as well as “apple green” birefringence"}, {"measurement": "FT-IR change on association", "setting": "α-chymotrypsin [3]", "value": "increase in peaks at 1612 and 1685 cm^−1"}, {"measurement": "Rg of chymotrypsinogen (Guinier)", "setting": "chymotrypsinogen-A; 24 mM azoTAB, visible light, 10.0 mg/mL protein", "value": 19.7, "unit": "Å"}, {"measurement": "increase in I(0) relative to the monomer data", "setting": "chymotrypsinogen-A; UV light, 19 mM and 24 mM azoTAB", "value": 12, "unit": "fold"}, {"measurement": "time for complete visible-light induced dissociation of UV-equilibrated samples", "setting": "chymotrypsinogen-A; re-exposure to 434-nm visible light", "value": "several hours"}, {"measurement": "I(0)", "setting": "chymotrypsinogen-A; visible light", "value": "0.2 to 0.25", "unit": "cm⁻¹"}, {"measurement": "Rg from second Guinier slope (monomer)", "setting": "α-chymotrypsin [4]; Q^2 ~0.01-0.03 Å^-2, α-Ch/azoTAB solutions, pH 3 and pH 7, visible and UV", "value": "17.0-18.2 Å"}, {"measurement": "type of protein self-association", "setting": "α-chymotrypsin [4]; UV light (cis azoTAB)", "value": "monomer-dodecamer equilibrium"}, {"measurement": "Dmax of oligomer (PDDF)", "setting": "α-chymotrypsin [4]; UV light, dodecamer", "value": "~160", "unit": "Å"}, {"measurement": "most probable dimension (PDDF peak)", "setting": "α-chymotrypsin [4]; UV light, dodecamer", "value": "40-50 Å"}, {"measurement": "effective oligomer size n^eff reached with increasing surfactant concentration", "setting": "α-chymotrypsin [4]; UV light, SANS and SAXS data", "value": 12}, {"measurement": "scaling exponent of Rg^n with oligomer Mw", "setting": "α-chymotrypsin [4]; hexamer or dodecamer, compared to monomer Rg", "value": "0.42±0.03"}, {"measurement": "increase in Rg with the addition of azoTAB", "setting": "α-chymotrypsin [4]; monomer Rg, Table 1", "value": 7, "unit": "%"}, {"measurement": "type of protein self-association", "setting": "α-chymotrypsin [4]; visible light (trans azoTAB)", "value": "monomer-hexamer equilibrium"}, {"measurement": "Dmax of oligomer (PDDF)", "setting": "α-chymotrypsin [4]; visible light, hexamer", "value": "~120", "unit": "Å"}, {"measurement": "isomer ratio", "setting": "[5]; 350-nm UV light", "value": "90/10"}, {"measurement": "trans isomer", "setting": "[5]; in the dark, about 24 hours", "value": "~100", "unit": "%"}, {"measurement": "isomer ratio", "setting": "[5]; visible light, 434 nm", "value": "75/25"}, {"measurement": "cis→trans isomerization kinetics", "setting": "[5]; visible light", "value": "within minutes"}]}
